Our source for the melting point values is patent US8546383B2, “Chiral fused [1,2]imidazo[4,5-c] ring compounds” (3M Innovative Properties Company, priority 2004, dated 2013).

Where a name gives a salt, the structure may show the parent alone.

By melting point is commonly meant the temperature, or range, at which the solid turns liquid. `CC1COCc2nc3c(N)nc4ccc(OCc5ccccc5)cc4c3n21` (stereo in doubt) [Example 18, (11R)-2-(Benzyloxy)-11-methyl-10,11-dihydro-8H-[1,4]oxazino[4′,3′:1,2]imidazo[4,5-c]quinolin-6-amine] displayed a melting point of 100 to 120 °C.
For `Nc1nc2ccccc2c2c1nc1n2[C@@H](Cc2ccc(O)cc2)COC1` (as salt: hydrochloride) [Example 48, 4-{[(11S)-6-Amino-10,11-dihydro-8H-[1,4]oxazino[4′,3′:1,2]imidazo[4,5-c]quinolin-11-yl]methyl}phenol], the melting point is > 240 °C (dec.).
Next, `C[C@H]1COCc2nc3c(N)nc4c(c3n21)CCCC4` [Example 6, (11S)-11-Methyl-2,3,4,8,10,11-hexahydro-1H-[1,4]oxazino[4′,3′:1,2]imidazo[4,5-c]quinolin-6-amine]: 209 to 211 °C; `CC(C)[C@H]1COCc2nc3c(N)nc4ccccc4c3n21` [Example 1, (11S)-1′-Isopropyl-10,11-dihydro-8H-[1,4]oxazino[4′,3′:1,2]imidazo[4,5-c]quinolin-6-amine]: 249 to 250 °C; `C[C@H]1COCc2nc3c(N)nc4ccc(OCc5cscn5)cc4c3n21` [Example 54, (11S)-11-Methyl-2-(1,3-thiazol-4-ylmethoxy)-10,11-dihydro-8H-[1,4]oxazino[4′,3′:1,2]imidazo[4,5-c]quinolin-6-amine]: 240 to 242 °C.
Next, `C[C@H]1COCc2nc3c(N)nc4ccccc4c3n21` [Example 5, (11S)-11-Methyl-10,11-dihydro-8H-[1,4]oxazino[4′,3′:1,2]imidazo[4,5-c]quinolin-6-amine]: 280 to 282 °C; `C[C@@H](OCc1ccccc1)[C@H]1COCc2nc3c(N)nc4ccccc4c3n21` [Example 38, (11R)-11-[(1R)-1-(benzyloxy)ethyl]-10,11-dihydro-8H-[1,4]oxazino[4′,3′:1,2]imidazo[4,5-c]quinolin-6-amine]: 189 to 190.8 °C.
`COc1ccc(C[C@H]2COCc3nc4c(N)nc5ccccc5c4n32)cc1` [Example 49, (11S)-11-(4-Methoxybenzyl)-10,11-dihydro-8H-[1,4]oxazino[4′,3′:1,2]imidazo[4,5-c]quinolin-6-amine] returned a melting point of 115 to 130 °C.
As for `CC(C)[C@H]1COCc2nc3c(N)nc4ccc(OCc5ccccc5)cc4c3n21` [Example 19, (11S)-2-(Benzyloxy)-11-isopropyl-10,11-dihydro-8H-[1,4]oxazino[4′,3′:1,2]imidazo[4,5-c]quinolin-6-amine], the melting point lay within 139 to 141 °C.
Molecule `CN1CCN(C[C@H]2COCc3nc4c(N)nc5ccccc5c4n32)CC1` [Example 37, (11S)-11-[(4-Methylpiperazin-1-yl)methyl]-10,11-dihydro-8H-[1,4]oxazino[4′,3′:1,2]imidazo[4,5-c]quinolin-6-amine] registered a melting point of 187 to 190 °C.
Next, `Nc1nc2ccccc2c2c1nc1n2[C@@H](c2ccccc2)COC1` [Example 9, (11S)-11-Phenyl-10,11-dihydro-8H-[1,4]oxazino[4′,3′:1,2]imidazo[4,5-c]quinolin-6-amine]: 284 to 286 °C; `C[C@@H]1COCc2nc3c(N)nc4ccccc4c3n21` [Example 26]: 280 to 282 °C.
Next, `Nc1nc2ccccc2c2c1nc1n2[C@H](Cc2ccccc2)COC1` (hydrate or solvate) [Example 29]: 170 to 177 °C; `CC(C)(F)[C@H]1COCc2nc3c(N)nc4cc(O)ccc4c3n21` [Example 17, (11R)-6-Amino-11-(1-fluoro-1-methylethyl)-10,11-dihydro-8H-[1,4]oxazino[4′,3′:1,2]imidazo[4,5-c]quinolin-3-ol]: 219 to 221 °C.
Next, `C[C@H](O)[C@H]1COCc2nc3c(N)nc4ccccc4c3n21` [Example 41, (1S)-1-[(11R)-6-amino-10,11-dihydro-8H-[1,4]oxazino[4′,3′:1,2]imidazo[4,5-c]quinolin-1′-yl]ethanol]: 207.6 to 208.7 °C.
